Data as given in US5380921A, “Aminophosponic acid derivative” (Banyu Pharmaceutical Co., Ltd., priority 1993, dated 1995).
“Also recorded” adds a separate entry of the source.

Columns and labels:
[1] = biological target: T1, endothelin-converting enzyme (ECE) (Bos taurus, UniProt P42891); experiment: ECE Activity Inhibition Test (endothelin-1 produced from big endothelin-1, RIA); assay type: biochemical; settings: 10 μM test compound; 1 μM big endothelin-1; pH 7.2, 37° C., 90 minutes
T1 construct: ECE was prepared according to the method already published by Yano, et.al; endogenous in cells
T1 sequence (P42891 1-754): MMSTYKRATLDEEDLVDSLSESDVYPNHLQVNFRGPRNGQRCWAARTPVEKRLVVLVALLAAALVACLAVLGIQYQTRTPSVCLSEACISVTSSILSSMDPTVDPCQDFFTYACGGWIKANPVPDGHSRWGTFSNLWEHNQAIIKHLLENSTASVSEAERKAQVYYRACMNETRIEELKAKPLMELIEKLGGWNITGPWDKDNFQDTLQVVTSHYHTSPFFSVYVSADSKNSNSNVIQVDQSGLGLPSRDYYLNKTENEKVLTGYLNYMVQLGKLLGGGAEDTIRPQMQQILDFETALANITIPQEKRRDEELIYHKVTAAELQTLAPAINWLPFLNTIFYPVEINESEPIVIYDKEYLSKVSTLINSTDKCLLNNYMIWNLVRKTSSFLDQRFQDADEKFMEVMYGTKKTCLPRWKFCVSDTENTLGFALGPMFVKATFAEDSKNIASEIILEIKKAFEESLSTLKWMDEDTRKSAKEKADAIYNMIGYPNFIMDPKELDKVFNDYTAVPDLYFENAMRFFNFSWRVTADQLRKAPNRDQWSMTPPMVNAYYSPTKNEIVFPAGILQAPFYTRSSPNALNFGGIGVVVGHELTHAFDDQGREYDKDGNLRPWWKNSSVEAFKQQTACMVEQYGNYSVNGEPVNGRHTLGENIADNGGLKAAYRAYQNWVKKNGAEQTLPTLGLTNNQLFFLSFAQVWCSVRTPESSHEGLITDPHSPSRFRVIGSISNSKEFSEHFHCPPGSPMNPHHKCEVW
Description: ECE was prepared according to the method already published by Yano, et.al. (Biochem. Biophys. Res. Commun., Vol. 171, p.1192-1198, 1990), and 11 μg of ECE and 1 μM of big endothelin-1 were reacted with a 0.5M Tris-HCl buffer solution (pH 7.2) at 37° C. for 90 minutes in the presence or absence of a test compound, after which the amount of endothelin-1 produced thereby was determined by the RIA method, and the ECE inhibition activity of the test compound was evaluated.

[2] = system: Isolated Pig Coronary Arteries; experiment: Effect on endothelin-1-induced increase in tension in isolated pig coronary arteries; settings: 0.3 nM endothelin-1
Description: Pig coronary arteries were isolated, and a spiral preparation having a width of 1 mm and a length of 10 mm was prepared therefrom. These samples were then placed in a 5 ml Magnus' tube filled with Krebs-Henseleit solution saturated with a gas mixture of 95% O2 and 5% CO2, and a change in the tension was isometrically measured and recorded. […]

[3] = system: Isolated Pig Coronary Arteries; experiment: Effect on Big Endothelin-1-induced Contraction in Isolated Pig Coronary Arteries
Description: Pig coronary arteries were isolated, and a spiral preparation having a width of 1 mm and a length of 10 mm was prepared therefrom. These samples were then placed in a 5 ml Magnus' tube filled with Krebs-Henseleit solution saturated with a gas mixture of 95% O2 and 5% CO2, and a change in the tension was isometrically measured and recorded.
The influence of a representative compound of the present invention (Compound of Example 11) to the increase in the tension produced by 30 nM of big endothelin-1 was examined. The test compound was added to the Magnus' tube 40 minutes prior to the addition of big endothelin-1.
A 100% increase in the tension was defined as that in the case of no addition of the test compound (control) at 2 hours after addition of big endothelin-1, and the comparison with the increase in the tension in the cases where the test compound was added is shown in Table 2.

[4] = system: Guinea Pigs; experiment: Effect on Big Endothelin-1-induced Increase in Airway Resistance in Guinea Pigs; assay type: in vivo, guinea pig
Description: Guinea pigs were first anesthetized with urethane, and then the necks were subjected to median incision, a tracheal cannula was inserted in the trachea. Spontaneous respiration was interrupted with succinylcholine (5 mg/kg, hypodermic injection), and then an artificial respirator was used to effect artificial ventilation (10 ml/air/kg, […]). The airway pressure was then measured and recorded using the Konzett and Rossler method (Arch. Exp. Path. Pharmacol., Vol. 135, p.71-74, 1940), via an airway contraction transducer from the tracheal cannula.
Examined was the influence of a representative compound of the present invention (Compound of Example 1, Isomer B) to the increase in airway pressure produced by the administration of 5 nmol/kg of big endothelin-1 through a polyethylene tube inserted into the common carotid vein. The test compound was injected into the common carotid vein 5 minutes before the administration of big endothelin-1. Also, upon completion of the experiment, the change in airway pressure obtained by blockage of the trachea was defined as a 100% increase in airway pressure, and the measured increases in airway pressure were expressed as percentages of this value. […]

[5] = system: Isolated Guinea Pig Bronchial Smooth Muscles; experiment: Effect on Big Endothelin-1-induced Contraction in Isolated Guinea Pig Bronchial Smooth Muscles
Description: Bronchia (outer diameter approximately 2 mm) were isolated from the lung of a guinea pig, and the connective tissue, lung parenchymal tissue, etc. were peeled off, and then a ring preparation (4 mm in length) was prepared. These samples were placed in a 5 ml Magnus' tube filled with Krebs-Henseleit solution saturated with a gas mixture of 95% O2 and 5% CO2, and a change in tension was isometrically measured and recorded.
The influence of a representative compound of the present invention (Compound of Example 2, Isomer B) to the increase in the tension produced by 100 nM of big endothelin-1 was examined. The test compound was added into the Magnus' tube 40 minutes prior to the addition of big endothelin-1.
A 100% increase in the tension was defined as that in the case of no addition of the test compound (control) at 2 hours after addition of big endothelin-1, and the comparison with the increase in the tension in the cases where the test compound was added is shown in Table 3.

In the case of `CC(C)C[C@H](NC(CCc1ccccc1)P(=O)(O)O)C(=O)N[C@@H](Cc1c[nH]c2ccccc12)C(=O)O` (stereo partly drawn) [Example 11, N-[N-(3-phenyl-1-phosphonopropyl)-L-leucyl]-L-tryptophan], the inhibition at 10 µM [1] is reported as 84%, the “effect on the increase in the tension caused by endothelin-1” value [2] is reported as “no effect” and the “inhibition of big endothelin-1-induced contraction (in words)” value ([3]; 30 nM big endothelin-1, 10-100 μM) is reported as “dose-dependent inhibition”. The IC50 ([3]; Sus scrofa, 30 nM big endothelin-1, pig coronary arteries, calculated, read-out: IC50 value, inhibition of big endothelin-1-induced contraction) was 16 µM, the activity at 10 µM ([3]; Sus scrofa, 10 μM, 30 nM big endothelin-1, at 2 hours, read-out: Contraction (% of control)) was 59.9% and the activity at 30 µM ([3]; Sus scrofa, 30 μM, 30 nM big endothelin-1, at 2 hours, read-out: Contraction (% of control)) was 35.3%. The activity at 100 µM ([3]; Sus scrofa, 100 μM, 30 nM big endothelin-1, at 2 hours, read-out: Contraction (% of control)) was 2.7% and the “effect of the compound itself on the tension of blood vessel samples” value ([3]; compound alone) was “no effect”.

`CC(C)C[C@H](NC(CCc1ccccc1)P(=O)(O)O)C(=O)N[C@@H](Cc1c[nH]c2ccccc12)C(=O)O` (single isomer, unassigned) [Example 1 (Isomer B), N-[N-(3-phenyl-1-phosphonopropyl)-L-leucyl]-L-tryptophan] was tested, and the “increase in airway pressure induced by big endothelin-1” value ([4]; 0.3, 1.0 and 3.0 mg/kg into common carotid vein, 5 minutes before 5 nmol/kg big endothelin-1, FIG. 1) was “remarkably inhibits the increase in the airway pressure; also recorded: suppressed the increase in airway pressure induced by big endothelin-1, in a dose-dependent manner” and the “change in airway pressure on administration of the test compound alone” value ([4]; test compound alone) was “no change in the airway pressure”.

`CC(C)C[C@H](NC(CCc1c[nH]c2ccccc12)P(=O)(O)O)C(=O)N[C@@H](Cc1c[nH]c2ccccc12)C(=O)O` (stereo partly drawn) [Example 6, N-[N-[3-(3-indolyl)-1-phosphonopropyl]-L-leucyl]-L-tryptophan] gave an inhibition at 10 µM [1] of 80%.

With `CC(C)C[C@H](NP(=O)(O)O[C@@H]1O[C@@H](C)[C@H](O)[C@@H](O)[C@H]1O)C(=O)N[C@@H](Cc1c[nH]c2ccccc12)C(=O)O` [Phosphoramidon, reference compound] the inhibition at 10 µM [1] was 64%.

For `CC(C)C[C@H](NC(CCc1cccc2ccccc12)P(=O)(O)O)C(=O)N[C@@H](Cc1c[nH]c2ccccc12)C(=O)O` (single isomer, unassigned) [Example 2 (Isomer B), N-{N-[3-(1-naphthyl)-1-phosphonopropyl]-L-leucyl}-L-tryptophan], the “inhibition of big endothelin-1-induced contraction (in words)” value ([5]; 100 nM big endothelin-1, 1-100 μm (so in the source)) was “dose-dependent inhibition”, the IC50 ([5]; Cavia porcellus, 100 nM big endothelin-1, guinea pig bronchia, calculated, read-out: IC50 value, inhibition of big endothelin-1-induced contraction) was 16 µM and the activity at 1 µM ([5]; Cavia porcellus, 1 μm (so in the source), 100 nM big endothelin-1, at 2 hours, read-out: Contraction (% of control)) was 105%. For the same compound, the activity at 10 µM ([5]; Cavia porcellus, 10 μm (so in the source), 100 nM big endothelin-1, at 2 hours, read-out: Contraction (% of control)) was 54.9%, the activity at 100 µM ([5]; Cavia porcellus, 100 μm (so in the source), 100 nM big endothelin-1, at 2 hours, read-out: Contraction (% of control)) was 32.9% and the “effect of the test compound itself on the tension of bronchial samples” value ([5]; compound alone) was “no effect”.

With `O=C(O)[C@H](Cc1c[nH]c2ccccc12)NC(=O)[C@H](Cc1ccccc1)NC(CCc1ccccc1)P(=O)(O)O` (single isomer, unassigned) [Example 10 (Isomer B), N-[N-(3-phenyl-1-phosphonopropyl)-L-phenylalanil]-L-tryptophan] the inhibition at 10 µM [1] was 76%.
